Reference: patent publication US11390616B2 (BRISTOL-MYERS SQUIBB COMPANY, priority 2015, dated 2022)
pEC50: −log10 of the molar value.

Each compound was assayed against T1, human APJ receptor (Homo sapiens, UniProt P35414) (assay: Intracellular cAMP accumulation assay (APJ hcAMP, HTRF)). Conditions: HEK293 cells stably expressing human APJ receptor; inhibition of forskolin-mediated cAMP production; read-out: APJ cAMP Potency range.
T1 construct: expressed in transfected cells; host or cells: HEK293
T1 sequence (P35414 1-380): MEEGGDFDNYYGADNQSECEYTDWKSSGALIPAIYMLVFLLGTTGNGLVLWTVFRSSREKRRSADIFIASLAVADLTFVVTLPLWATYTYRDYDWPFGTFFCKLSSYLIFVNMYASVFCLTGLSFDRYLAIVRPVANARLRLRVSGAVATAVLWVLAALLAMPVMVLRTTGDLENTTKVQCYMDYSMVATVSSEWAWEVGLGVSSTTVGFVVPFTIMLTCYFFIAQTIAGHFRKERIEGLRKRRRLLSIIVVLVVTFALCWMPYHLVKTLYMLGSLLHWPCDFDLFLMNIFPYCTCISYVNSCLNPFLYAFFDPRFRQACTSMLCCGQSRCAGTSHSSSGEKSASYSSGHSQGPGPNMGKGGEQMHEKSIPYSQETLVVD
Assay type: cell-based
Procedure, shortened: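 HEK293 cells stably expressing the receptor (5,000/well) treated with compound plus […] and 2 μM forskolin for 30 min at room temperature; cAMP by HTRF against a cAMP standard curve. EC50 from variable-slope sigmoidal fit; Ymax as % of (Pyr1)apelin-13 inhibition.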

pEC50, 7.00 to 8.00:
Cc1ncccc1-c1ccc(Cc2c(O)n([C@H](c3cc(F)cc(C#N)c3)C(C)C)c(COC(C)C)nc2=O)cc1 [Example 121, 3-fluoro-5-[(1S)-1-(6-hydroxy-5-{[4-(2-methylpyridin-3-yl)phenyl]methyl}-4-oxo-2-[(propan-2-yloxy)methyl]-1,4-dihydropyrimidin-1-yl)-2-methylpropyl]benzonitrile]

pEC50, 8.00 to 11.00:
CCCCc1nc(=O)c(Cc2ccc(-c3cccnc3C)cc2)c(O)n1[C@@H](CC)c1cccc(F)c1 [Example 105, 2-butyl-1-[(1S)-1-(3-fluorophenyl)propyl]-6-hydroxy-5-{[4-(2-methylpyridin-3-yl)phenyl]methyl}-1,4-dihydropyrimidin-4-one]
CCCCc1nc(=O)c(Cc2ccc(-c3ccncc3C)cc2)c(O)n1[C@@H](CC)c1cccc(F)c1 [Example 106, 2-butyl-1-[(1S)-1-(3-fluorophenyl)propyl]-6-hydroxy-5-{[4-(3-methylpyridin-4-yl)phenyl]methyl}-1,4-dihydropyrimidin-4-one]
CC[C@@H](c1cc(F)cc(F)c1)n1c(CCC2CC2)nc(=O)c(Cc2ccc(-c3ccc(F)nc3C)cc2)c1O [Example 107, 2-(2-cyclopropylethyl)-1-[(1S)-1-(3,5-difluorophenyl)propyl]-5-{[4-(6-fluoro-2-methylpyridin-3-yl)phenyl]methyl}-6-hydroxy-1,4-dihydropyrimidin-4-one]
CC[C@@H](c1cc(F)cc(F)c1)n1c(COC(C)C)nc(=O)c(Cc2ccc(-c3ccnc(F)c3C)cc2)c1O [Example 108, 1-[(1S)-1-(3,5-difluorophenyl)propyl]-5-{[4-(2-fluoro-3-methylpyridin-4-yl)phenyl]methyl}-6-hydroxy-2-[(propan-2-yloxy)methyl]-1,4-dihydropyrimidin-4-one]
CC[C@@H](c1cc(F)cc(F)c1)n1c(CCC2CC2)nc(=O)c(Cc2ccc(-c3cccnc3C)cc2)c1O [Example 109, 2-(2-cyclopropylethyl)-1-[(1S)-1-(3,5-difluorophenyl)propyl]-6-hydroxy-5-{[4-(2-methylpyridin-3-yl)phenyl]methyl}-1,4-dihydropyrimidin-4-one]
CC[C@@H](c1cc(F)cc(F)c1)n1c(CCC2CC2)nc(=O)c(Cc2ccc(-c3ccncc3C)cc2)c1O [Example 110, 2-(2-cyclopropylethyl)-1-[(1S)-1-(3,5-difluorophenyl)propyl]-6-hydroxy-5-{[4-(3-methylpyridin-4-yl)phenyl]methyl}-1,4-dihydropyrimidin-4-one]
CC[C@@H](c1cc(F)cc(F)c1)n1c(COC(C)C)nc(=O)c(Cc2ccc(-c3cccnc3C)cc2)c1O [Example 111, 1-[(1S)-1-(3,5-difluorophenyl)propyl]-6-hydroxy-5-{[4-(2-methylpyridin-3-yl)phenyl]methyl}-2-[(propan-2-yloxy)methyl]-1,4-dihydropyrimidin-4-one]
CC[C@@H](c1cc(F)cc(F)c1)n1c(COC(C)C)nc(=O)c(Cc2ccc(-c3ccc(F)nc3C)cc2)c1O [Example 112, 1-[(1S)-1-(3,5-difluorophenyl)propyl]-5-{[4-(6-fluoro-2-methylpyridin-3-yl)phenyl]methyl}-6-hydroxy-2-[(propan-2-yloxy)methyl]-1,4-dihydropyrimidin-4-one]
CC[C@@H](c1cc(F)cc(F)c1)n1c(CCC2CC2)nc(=O)c(Cc2ccc(-c3ccnc(F)c3C)cc2)c1O [Example 113, 2-(2-cyclopropylethyl)-1-[(1S)-1-(3,5-difluorophenyl)propyl]-5-{[4-(2-fluoro-3-methylpyridin-4-yl)phenyl]methyl}-6-hydroxy-1,4-dihydropyrimidin-4-one]
CC[C@@H](c1cc(F)cc(F)c1)n1c(COC(C)C)nc(=O)c(Cc2ccc(-c3ccncc3C)cc2)c1O [Example 114, 1-[(1S)-1-(3,5-difluorophenyl)propyl]-6-hydroxy-5-{[4-(3-methylpyridin-4-yl)phenyl]methyl}-2-[(propan-2-yloxy)methyl]-1,4-dihydropyrimidin-4-one]
Cc1ncccc1-c1ccc(Cc2c(O)n([C@H](c3cc(F)cc(F)c3)C(C)C)c(COC(C)C)nc2=O)cc1 [Example 115, 1-[(1S)-1-(3,5-difluorophenyl)-2-methylpropyl]-6-hydroxy-5-{[4-(2-methylpyridin-3-yl)phenyl]methyl}-2-[(propan-2-yloxy)methyl]-1,4-dihydropyrimidin-4-one]
CC(C)OCc1nc(=O)c(Cc2ccc(-c3ccc(F)cc3C(N)=O)cc2)c(O)n1[C@H](c1cc(F)cc(F)c1)C(C)C [Example 116, 4′-({1-[(1S)-1-(3,5-difluorophenyl)-2-methylpropyl]-6-hydroxy-4-oxo-2-[(propan-2-yloxy)methyl]-1,4-dihydropyrimidin-5-yl}methyl)-4-fluoro-[1,1′-biphenyl]-2-carboxamide]
CC(C)[C@@H](c1cc(F)cc(F)c1)n1c(CCC2CC2)nc(=O)c(Cc2ccc(-c3ccc(F)cc3C(N)=O)cc2)c1O [Example 117, 4′-{[2-(2-cyclopropylethyl)-1-[(1S)-1-(3,5-difluorophenyl)-2-methylpropyl]-6-hydroxy-4-oxo-1,4-dihydropyrimidin-5-yl]methyl}-4-fluoro-[1,1′-biphenyl]-2-carboxamide]
CC[C@@H](c1ccccc1)n1c(-c2nc(C)cs2)nc(=O)c(Cc2ccc(-c3ccnc(F)c3C)c(F)c2)c1O [Example 118, 5-{[3-fluoro-4-(2-fluoro-3-methylpyridin-4-yl)phenyl]methyl}-6-hydroxy-2-(4-methyl-1,3-thiazol-2-yl)-1-[(1S)-1-phenylpropyl]-1,4-dihydropyrimidin-4-one]
CC[C@@H](c1ccccc1)n1c(-c2nc(C)cs2)nc(=O)c(Cc2ccc(-c3cccn(C)c3=O)c(F)c2)c1O [Example 119, 5-{[3-fluoro-4-(1-methyl-2-oxo-1,2-dihydropyridin-3-yl)phenyl]methyl}-6-hydroxy-2-(4-methyl-1,3-thiazol-2-yl)-1-[(1S)-1-phenylpropyl]-1,4-dihydropyrimidin-4-one]
CC[C@@H](c1ccccc1)n1c(-c2nc(C)cs2)nc(=O)c(Cc2ccc(-c3ccc(F)cc3C(N)=O)c(F)c2)c1O [Example 120, 2′,4-difluoro-4′-{[6-hydroxy-2-(4-methyl-1,3-thiazol-2-yl)-4-oxo-1-[(1S)-1-phenylpropyl]-1,4-dihydropyrimidin-5-yl]methyl}-[1,1′-biphenyl]-2-carboxamide]
CCOCc1nc(=O)c(Cc2ccc(-c3ccncc3C)cc2)c(O)n1[C@@H](COC)c1cc(F)cc(F)c1 [Example 122, 1-[(1R)-1-(3,5-difluorophenyl)-2-methoxyethyl]-2-(ethoxymethyl)-6-hydroxy-5-{[4-(3-methylpyridin-4-yl)phenyl]methyl}-1,4-dihydropyrimidin-4-one]
CCOCc1nc(=O)c(Cc2ccc(-c3cccnc3C)cc2)c(O)n1[C@@H](COC)c1cc(F)cc(F)c1 [Example 123, 1-[(1R)-1-(3,5-difluorophenyl)-2-methoxyethyl]-2-(ethoxymethyl)-6-hydroxy-5-{[4-(2-methylpyridin-3-yl)phenyl]methyl}-1,4-dihydropyrimidin-4-one]
